This note sets out measurements from patent US11591634B1, “Forecasting bacterial survival-success and adaptive evolution through multiomics stress-response mapping and machine learning” (priority 2019, dated 2023).

Experiment [1] concerns antibiotic-adapted S. pneumoniae 19F (a19F). Briefly: Fitness outcome under antibiotic exposure (growth curve assay). Type of experiment: cell-based, Streptococcus pneumoniae. The procedure: (§1) To test whether a gene-panel model can be trained that predicts fitness for many different conditions, a large RNA-Seq dataset was generated for the human pathogen Streptococcus pneumoniae. […] These include cell wall synthesis inhibitors (CWSI), DNA synthesis inhibitors (DSI), protein synthesis inhibitors (PSI) and RNA synthesis inhibitors ((RSI); FIG. 1A, Tables 1 & 2). Each strain was exposed to each antibiotic for 2 to 4 hours and cells were harvested for RNA-Seq at various time points. As T4 and 19F are susceptible to most antibiotics used, the transcriptional profiles in the presence of antibiotics mostly represent cases of low fitness (FIG. 1A, sensitive strain, 1xMICWT). In order to find patterns that differentiate fitness outcomes, adapted strains were generated with increased fitness in the presence of antibiotics by serial passaging wildtype T4 and 19F in the presence of increasing amounts of antibiotics. Four independent adapted populations for each strain were selected on individual antibiotics. These adapted strains could grow in the presence of antibiotic at 1.5xMIC of the wildtype strain, albeit with a small growth defect (FIGS. 6A-6E & 6F). In parallel, RNA-Seq was performed on S. pneumoniae strains D39 and T4 in a chemically defined medium, and media from which either uracil, Glycine or L-Valine was removed, which are essential for D39 but not T4. This enabled the potential identification of a common stress signature that is shared between antibiotic exposure and nutrient deprivation, and across multiple strains. Lastly, D39 was adapted to grow in the absence of each individual nutrient, after which RNA-Seq was repeated for adapted clones (Table 1 lists all 24 strains, 67 populations and 267 RNA-Seq experiments).
(§2) S. pneumoniae strain TIGR4 (T4; NC_003028.3) is a serotype 4 strain originally isolated from a patient^3,4, Taiwan-19F (19F; NC_012469.1) is a multi-drug resistant strain^5,6 and D39 (NC_008533) is a commonly used serotype 2 strain originally isolated from a patient about 90 years ago^7. Strain PG1 and PG19 were isolated from adults with pneumococcal bacteremia infection and included in the Pneumococcal Bacteremia Collection Nijmegen (PBCN)^8. All S. pneumoniae gene numbers refer to the T4 genome. Correspondence between homologous genes among S. pneumoniae strains and gene function annotations are described herewith. Escherichia coli strain AR538, Klebsiella pneumoniae strain AR497 and Salmonella enterica subsp Typhimurium strain AR635 were clinical isolates obtained from the Center of Disease Control (CDC). Staphylococcus aureus strain MN6 was kindly provided by George Sakoulas (Center of Immunity, Infection & Inflammation, UCSD School of Medicine). Unless otherwise specified, S. pneumoniae strains were cultivated in Todd Hewitt medium with 5% yeast extract (THY) with 5 μL/mL oxyrase (Oxyrase, Inc) or on sheep's blood agar plates (Northeastern Laboratories) at 37° C. with 5% CO2. A. baumannii, E. coll. K. pneumoniae, S. aureus and S. Typhimurium were cultured in Mueller Hinton broth II (Sigma) at 37° C. with 220 rpm constant shaking. Tn-Seq and RNA-Seq experiments of S. pneumoniae under nutrient-depletion and antibiotic conditions were performed in chemically defined medium (CDM)^9 and semi-defined minimal medium (SDMM)^10, respectively. RNA-Seq experiments for A. baumannii, S. Typhimurium, E. coll. K. pneumoniae, and S. aureus were performed in Mueller Hinton broth II. Single strain growth assays were performed at least three times using 96-well plates by taking OD600 measurements on a Tecan Infinite 200 PRO plate reader.
(§3) D39 was used as the parental strain in nutrient-depletion evolution experiments; T4 and 19F were used as parental strains in antibiotic evolution experiments. […] Four replicate populations were serial passaged in CDM or SDMM as controls to identify background adaptations in nutrient or antibiotic adaptation experiments, respectively. […]

Experiment [2] relates to antibiotic-adapted S. pneumoniae T4 (aT4). The experiment is described as above. The format is cell-based, Streptococcus pneumoniae. The procedure: as §1, §2, §3
In experiment [3] the test system is Acinetobacter baumannii 17978. Briefly: Fitness outcome under ciprofloxacin (growth curve assay). Particulars: A. baumannii 17978; 1 μg/mL ciprofloxacin. The format is cell-based.
Source text: as §2, with “K. pneumoniae, S. aureus and S. Typhimurium were cultured in Mueller Hinton broth II (Sigma) at 37° C. with 220 rpm constant shaking. Tn-Seq and RNA-Seq experiments of S. pneumoniae under nutrient-depletion and antibiotic conditions were performed in chemically defined medium (CDM)^9 and semi-defined minimal medium (SDMM)^10, respectively. RNA-Seq experiments for A. baumannii, S. Typhimurium, E. coll. K. pneumoniae, and S. aureus were performed in Mueller Hinton broth II.” left out

The subject of experiment [4] is Acinetobacter baumannii LAC-4. Described as above. The format is cell-based. The conditions noted are these: A. baumannii LAC-4; 1 μg/mL ciprofloxacin.
Source text: as §2, with “K. pneumoniae, S. aureus and S. Typhimurium were cultured in Mueller Hinton broth II (Sigma) at 37° C. with 220 rpm constant shaking. Tn-Seq and RNA-Seq experiments of S. pneumoniae under nutrient-depletion and antibiotic conditions were performed in chemically defined medium (CDM)^9 and semi-defined minimal medium (SDMM)^10, respectively. RNA-Seq experiments for A. baumannii, S. Typhimurium, E. coll. K. pneumoniae, and S. aureus were performed in Mueller Hinton broth II.” left out

Regarding `O=C(O)c1cn(C2CC2)c2cc(N3CCNCC3)c(F)cc2c1=O` [Ciprofloxacin, ciprofloxacin], the Fitness result in experiment [1] (a19F, 19F adapted to the respective antibiotic, 1xMIC and 1.5-2xMIC, growth curves) was “High”; in experiment [2] (aT4, T4 adapted to the respective antibiotic, 1xMIC and 1.5-2xMIC, growth curves), “High”; in experiment [3], “Low”; in experiment [4], “High”. Besides, the “Survive (real survival outcome)” value in experiment [1] (strain 19F, Adapted TRUE, Concentration L (low)) is listed as “TRUE”; in experiment [2] (strain T4, Adapted TRUE, Concentration L (low)), “TRUE”.
